Assays:
maize split-seed explant = experiment: direct multiple shoot formation on split-seed explant shoot induction medium; format: cell-based; details: BAP alone
Description: Another embodiment of the present invention provides a “split-seed explant shoot induction medium.” When a split-seed explant is exposed to a “split-seed explant shoot induction medium” and incubated under a 16-h soft white light at 27° C., the split-seed explant generates at least one shoot. A “split-seed explant shoot induction medium” comprises MS basal salts and B5 vitamins supplemented with a cytokinin or mixtures of cytokinins. A preferred cytokinin is BAP. The concentration of a cytokinin may range from 1.0 mg/l to 6.0 mg/l. Preferably the concentration of a cytokinin ranges from 1.0 mg/l to 5.0 mg/l and more preferably ranges from 1.5 mg/l to 4.5 mg/l. In a preferred embodiment, a cytokinin is BAP and is at a concentration of 3.0 mg/l to 4.0 mg/l. In a preferred embodiment, BAP is preferably at a concentration of 4.0 mg/l. A “split-seed explant shoot induction medium” further comprises glycine at a preferable concentration of 1.0 mg/l, casein hydrolysate at a preferable concentration of 400 mg/l, and sucrose at a preferable concentration of 30 g/l. A “split-seed explant shoot induction medium” may be solidified with 8.0 g/l agar. The pH of the medium is adjusted to 5.8 prior to adding the agar and the medium is autoclaved at 121° C. for 20 minutes.
In another embodiment, a “split-seed explant shoot induction medium” further comprises 6-furfurylaminopurine (“kinetin”). […]

[1] = tested on: embryogenic callus from maize split-seed explant; experiment: shoot regeneration from embryogenic callus on callus/somatic embryo shoot induction medium; format: cell-based; details: maximum period of two months
Description: Embryogenic calli/somatic embryos are transferred to a “callus/somatic embryo shoot induction medium” (which is an embodiment of the present and is described below) and allowed to develop shoots. The cultures are maintained at 27° C. under 16-hour soft white light. Shoot regeneration frequency is determined by calculating the number of embryogenic calli producing shoots and the number of shoots per callus.
A “callus/somatic embryo shoot induction medium” comprises MS basal salts and B5 vitamins supplemented with a cytokinin, or mixtures of cytokinins. A preferred cytokinin is BAP. The concentration of a cytokinin preferably ranges from 0.1 mg/l to 2.0 mg/l. Preferably the concentration of a cytokinin ranges from […] and most preferably ranges from 0.75 mg/l to 1.0 mg/l. In a preferred embodiment, a cytokinin is BAP is preferably at a concentration of 1.0 mg/l.
White and soft callus formed on the surface of split-seed explants is removed after one week for further growth on “primary calli maintenance medium” (FIG. 3B). Callus initiation from the split-seed is observed in four day old cultures. After one month in culture, highly proliferated calli (FIG. 3C) are transferred to an “embryogenic callus induction medium” containing 2,4-D at 0.1 mg/l and BAP at 0.5 mg/l to maintain embryogenic callus (FIG. 3D). The callus is sub-cultured every two weeks. […]

c1ccc(CNc2ncnc3nc[nH]c23)cc1 [BAP, 6-benzylamino purine]
multiple shoot induction (maize split-seed explant): induces multiple shoots | BAP concentration giving the highest number of shoots [1]: 1.0 mg/L
